Experimental findings from patent publication US7358267B2, “Bis-aryl thiazole derivatives” (Amgen Inc., priority 2001, dated 2008) are described below.

For one data set, the system named is UCP3 protein. The data set can be described thus: UCP3 protein induction in vivo in skeletal muscle after oral dosing (Western blot). The conditions noted are these: skeletal muscle tissue from Sprague-Dawley rats. The method, then: UCP3 protein was induced 2- to 3-fold in vivo (skeletal muscle tissue from Sprague-Dawley rats) after oral dosing with compound 1 (Western blot).
1. Isolate rat or mouse skeletal muscle and snap freeze in liquid nitrogen. Grind into a fine powder using mortar and pestle and transfer to an eppendorf tube.
2. Resuspend skeletal muscle in Buffer 1 (0.15 mM MgCl2, 10 mM KCl, 10 mM Tris-HCl, pH 6.7, stored at 4° C.).
3. Place resuspended cells on ice for 2 min. Homogenize using either Potter-Eleuhjem Teflon homogenizer and glass dounce or using hand held homogenizer for 2 min.
4. Add sucrose (1 M) to a final concentration of 0.25 M and spin at 1500 g (4000 rpm in microfuge) for 3 min. to remove nuclei.
5. Take the supernatant fraction and pellet the mitochondria by centrifugation at 10000 rpm for 10 min.
6. Resuspend pellet in 500 μl Buffer 2 (0.15 mM MgCl2, […], 10 mM Tris-HCl, pH 6.7, stored at 2-4° C.).
9. Resuspend final mitochondrial pellet in 2 7 μl Buffer 3 (0.25 M Sucrose, 10 mM Tris-acetate, pH 7.0, 3 μl 10× protease inhibitor cocktail (BMB), stored at 4° C.).
10. Determine protein concentration with BioRad protein assay dye (Bradford Reagent). 1 μl protein in 100 μl 1× Bradford Reagent. OD595 with BSA standard curve (1 μg/μl-50 μg/μl).
For antiUCP3 Westerns use 60 μg protein. Run precast 10% gels until dye front is about 1 cm from bottom of gel. […]

A further data set deals with T1, RXRα (Homo sapiens, UniProt P19793).
T1 construct: expressed in transfected cells; host or cells: HEK 293 cells
T1 sequence (P19793 1-462): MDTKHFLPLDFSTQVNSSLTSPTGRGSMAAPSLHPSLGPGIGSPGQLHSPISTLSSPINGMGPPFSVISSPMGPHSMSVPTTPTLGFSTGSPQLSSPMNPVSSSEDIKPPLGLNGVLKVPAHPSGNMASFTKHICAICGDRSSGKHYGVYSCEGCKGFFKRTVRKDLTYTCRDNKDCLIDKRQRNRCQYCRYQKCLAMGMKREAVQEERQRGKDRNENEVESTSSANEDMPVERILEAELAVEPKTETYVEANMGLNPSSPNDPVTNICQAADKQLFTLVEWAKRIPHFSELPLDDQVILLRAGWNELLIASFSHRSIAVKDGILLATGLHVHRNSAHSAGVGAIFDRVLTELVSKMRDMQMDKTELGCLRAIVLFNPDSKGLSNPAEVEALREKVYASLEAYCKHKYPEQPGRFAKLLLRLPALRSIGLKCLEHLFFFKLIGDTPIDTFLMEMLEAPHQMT
The data set can be described thus: RXRα induction in HEK 293 cells (transient transfection, luciferase reporter). The class given is cell-based. The method, then:
Table 2 provides QPCR data (ABI 7700 Sequence Detection System) for exemplary compounds of formula I evaluated for RXR induction in HEK 293 cells, following a general protocol, briefly described below. See Naeger et al. (1999) J. Biol. Chem. 274:1875-1878 for a related cell-based assay.
DNA constructs containing a luciferase reporter plasmid and another plasmid which contained an activation domain (e.g., RXRα) were transiently transfected into HEK 293 cells. The cells were treated with the compounds and luciferase activity was measured using a luminometer. Fold induction was determined by comparing the luciferase activity of treated cells to the activity of untreated cells.

For another data set, the system named is UCP3. The data set can be described thus: UCP3 RNA induction in rat L6 cells (QPCR). The class given is cell-based. The method, then:
Table 1 provides QPCR data (ABI 7700 Sequence Detection System) for exemplary compounds of formula I evaluated for UCP3 RNA induction in L6 cells from rats. The assay is described in Example 14.4, below.
Rat UCP3 (L6 cells) QPCR Protocol
1. (Day1) Plate 300,000 L6 cells per well (24 well plate) in Minimum Essential Medium-Alpha Medium with 2% FBS and Antibiotic/Antimycotic Solution added. Incubate for 2 days and change to fresh medium (Day3). Incubate 1 more day.
2. (Day 4) Add compound at desired concentration. Incubate for 18-20 h. 2 wells per compound. 4-wells of DMSO controls per plate.
3. (Day 5) Prepare RNA from cells: • (1) Aspirate media and lyse cells directly on plate by adding 500 μL of Trizol Reagent (Gibco BRL) to each well and passing the lysate several times through a pipette. Transfer lysate to eppendorf tubes (combining the lysate from identical compound treatments). • (2) Add 200 μL of chloroform to the 1 mL of lysate. Vortex to mix and incubate at room temp. for 2-3 min. Spin samples in a microfuge at 12,000 rpm for 15 min. at 4° C. • (3) Transfer the aqueous phase to a fresh tube. Precipitate the RNA from the aqueous phase by adding 500 μL of isopropanol and mixing well. Incubate at −20° C. for at least 15 min. Pellet the RNA by spinning at 12,000 rpm for 10 min. at 4° C. • (4) Remove the supernatant and wash the RNA pellet with 500 μL of 75% ethanol. Spin at 10,000 rpm for 5 min. at 4° C. • (5) Remove the supernatant and allow pellet to air dry briefly. Dissolve RNA in 15 μL of RNase-free water. Store at −80° C. Electrophorese some RNA to check quality.
4. QPCR (50 μL reactions in 96 well MicroAmp Optical Plate): TaqMan Gold RT-PCR Reagents (PE catalog #N808-0232): OD RNA and dilute to 5 ng/μL in RNase-free water. All samples run in duplicate with UCP3 and m18S probe/primers
Add 40 μL of Reaction Mix to 10 μL of diluted RNA (50 ng total) on QPCR plate PCR Cycling Parameters • 48° C. 30 min. • 95° C. 10 min. • 40 cycles: 95° C. 15 sec. • 58° C. 1.5 min. QPCR Primers/Probes

Consider `Cc1c(C(=O)O)cnn1-c1nc(-c2cccc(C(F)(F)F)c2)cs1` [Compound 1, 1-[4-(3-(Trifluoromethyl)phenyl)thiazol-2-yl]-5-methylpyrazole-4-carboxylic acid], for which the melting point lay in the range of 226.7 to 227.5 °C. Further, the UCP3 protein induction in the data set on UCP3 protein is recorded as 2- to 3 fold. Further, on RXRα, the “RXRα RNA induction at 1 μM” value was “++ (++ denotes greater than 5-fold induction)”, the “RXRα RNA induction at 3 μM” value is given as “+ (+ denotes 5-fold or less induction)” and the “RXRα RNA induction at 10 μM” value is “+ (+ denotes 5-fold or less induction)”. Further, the fold induction at 10 µM in the data set on UCP3 was > 10.

The compound `O=C(O)c1cnn(-c2nc(-c3cc(C(F)(F)F)cc(C(F)(F)F)c3)cs2)c1C(F)(F)F` [Compound 13, 1-[4-(3,5-Bis(trifluoromethyl)phenyl)thiazol-2-yl]-5-(trifluoromethyl)pyrazole-4-carboxylic acid] returned a melting point of 204 to 204.7 °C. Also, at RXRα, the “RXRα RNA induction at 1 μM” value was “+ (+ denotes 5-fold or less induction)”, the “RXRα RNA induction at 3 μM” value is listed as “+ (+ denotes 5-fold or less induction)” and the “RXRα RNA induction at 10 μM” value is recorded as “+ (+ denotes 5-fold or less induction)”. The fold induction at 10 µM with UCP3 is ≤ 10.
